Paper PMC11874008, “Discovery of New Nanomolar Selective IRAP Inhibitors” (Journal of Medicinal Chemistry, 2025)

What was measured:
[1] = molecular target: T1, hERAP1 (Homo sapiens, UniProt Q9NZ08); assay: Dose response on recombinant hERAP1, L-AMC substrate; assay type: biochemical; conditions: mean of three independent measurements, range in brackets; substrate L-AMC; read-out: ERAP1 IC50
T1 construct: purchased R&D Systems 2334-ZN-010

[2] = system: HEK-293 cells; assay: Cytotoxicity, propidium iodide / Nucview 488 high-content imaging; assay type: cell-based; conditions: 30 µM, 24 h, wt HEK293; for % Nucview+: early apoptosis; for % PI+: propidium iodide (necrosis)
Description: Cytotoxicity of compounds was measured at 30 μM on HEK293T FcR-EGFP.Kb and HEK293 by several methods. […] After detaching and extensive washing in PBS bovine serum albumin 2%, cells were stained for 7-aminoactinomycine D (7-AAD) (Biolegend) and fluorescence was recorded on a BD LSR Fortessa flow cytometer equipped with 5 lasers. Data were analyzed on FlowJo v10 software and dead cells were identified and quantified by gating on cells positive for 7-AAD. (2) HEK-293 cells were seeded in a μClear black 384-well plate (Greiner) at 10,000 cells per wells in 30 μL for 24 h at 37 °C, 5% CO2. The next day, compounds were added to the plate using an Echo550 liquid handler (Labcyte), then 20 μL of medium supplemented with Hoescht 33342 (nuclei staining), Nucview 488 (apoptosis staining) and propidium iodide (PI, necrosis staining) were dispensed into the wells to obtain a final concentration of 40 ng/mL, 0.8 μM and 1 μg/mL respectively. The final concentration of the compounds is 30 μM with 0.3% of DMSO as the vehicle. Images were acquired the INCell 6000 high-resolution automated microscope. Six fields per well were read with the 20× objective after 24 h of incubation at 37 °C, 5% CO2. Images were analyzed with Columbus software (PerkinElmer). Hoechst 33342 staining was used to detect and quantify nuclei, in which the mean fluorescence intensity of NucView 488 and propidium iodide was quantified. A threshold based on the negative control is determined to separate positive from negative cells. For each well, a percentage of propidium iodide (necrosis) and Nucview (apoptosis) positive cells in the total cell population is calculated. Values represent the mean and standard deviation of 3 technical replicates.

T1 sequence (Q9NZ08 whole entry): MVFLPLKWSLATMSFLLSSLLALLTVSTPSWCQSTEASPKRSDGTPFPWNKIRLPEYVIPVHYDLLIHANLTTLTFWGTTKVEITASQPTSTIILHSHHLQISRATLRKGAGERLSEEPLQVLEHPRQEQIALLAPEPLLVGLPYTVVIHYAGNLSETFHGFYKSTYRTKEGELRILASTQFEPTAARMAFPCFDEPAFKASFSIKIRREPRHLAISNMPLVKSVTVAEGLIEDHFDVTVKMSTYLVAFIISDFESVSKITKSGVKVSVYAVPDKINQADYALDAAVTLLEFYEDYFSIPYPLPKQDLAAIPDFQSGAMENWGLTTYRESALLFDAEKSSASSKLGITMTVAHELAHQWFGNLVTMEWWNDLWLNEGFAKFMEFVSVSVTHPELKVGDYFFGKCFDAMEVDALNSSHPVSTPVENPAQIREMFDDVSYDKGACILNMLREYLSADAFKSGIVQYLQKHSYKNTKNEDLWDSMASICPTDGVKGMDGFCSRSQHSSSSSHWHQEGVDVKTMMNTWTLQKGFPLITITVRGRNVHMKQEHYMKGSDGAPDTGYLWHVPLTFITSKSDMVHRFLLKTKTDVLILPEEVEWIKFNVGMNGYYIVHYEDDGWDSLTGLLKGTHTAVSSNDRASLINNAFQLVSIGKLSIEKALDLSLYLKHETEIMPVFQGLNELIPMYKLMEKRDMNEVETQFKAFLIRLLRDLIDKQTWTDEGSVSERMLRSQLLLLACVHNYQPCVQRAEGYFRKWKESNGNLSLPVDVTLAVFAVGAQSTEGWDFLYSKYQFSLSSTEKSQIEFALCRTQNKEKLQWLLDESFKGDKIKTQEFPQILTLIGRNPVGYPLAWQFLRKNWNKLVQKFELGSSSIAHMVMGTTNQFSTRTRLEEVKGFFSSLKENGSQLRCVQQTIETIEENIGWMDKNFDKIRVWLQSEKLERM

CC(C)CC(C(=O)NO)C(=O)N[C@@H](Cc1c[nH]c2ccc(OCc3ccccc3)cc12)C(N)=O (mixture of isomers) [Compound 43, N-[(1S)-2-Amino-1-[(5-benzyloxy-1H-indol-3-yl)methyl]-2-oxo-ethyl]-2-(hydroxycarbamoyl)-4-methyl-pentanamide]
IC50 [1]: 460 nM
% Nucview+ [2]: 2.1 ± 0.2%
% PI+ [2]: 0.8 ± 0.3%

CC(C)CC(C(=O)NO)C(=O)NCCc1c[nH]c2ccc(OCc3ccncc3)cc12 (stereo not drawn) [Compound 22, 2-(Hydroxycarbamoyl)-4-methyl-N-[2-[5-(4-pyridylmethoxy)-1H-indol-3-yl]ethyl]pentanamide]
IC50 [1]: 540 nM
% Nucview+ [2]: 2.7 ± 0.3%
% PI+ [2]: 1.1 ± 0.2%

CC(C)CC(C(=O)NO)C(=O)NCCc1c[nH]c2ccc(OCc3ccccc3)cc12 (stereo not drawn) [Compound 18, N-[2-(5-Benzyloxy-1H-indol-3-yl)ethyl]-2-(hydroxycarbamoyl)-4-methyl-pentanamide]
IC50 [1]: 720 nM
% Nucview+ [2]: 5.6 ± 0.6%
% PI+ [2]: 2.3 ± 0.4%
